Assay results from US11026427B2, “Microbiocidal oxadiazole derivatives” (SYNGENTA PARTICIPATIONS AG, priority 2016, dated 2021).

Legend:
[1] = test system: Uromyces viciae-fabae; assay: Uromyces viciae-fabae / field bean / leaf disc preventative (faba-bean rust); assay type: in vivo; conditions: foliar, 288 h, 100 ppm in the applied formulation, compared to untreated control, read-out: disease control
Experimental: (§1) Leaf disks or leaf segments of various plant species are cut from plants grown in a greenhouse. The cut leaf disks or segments are placed in multiwell plates (24-well format) onto water agar. The leaf disks are sprayed with a test solution before (preventative) or after (curative) inoculation. Compounds to be tested are prepared as DMSO solutions (max. 10 mg/ml) which are diluted to the appropriate concentration with 0.025% Tween20 just before spraying. The inoculated leaf disks or segments are incubated under defined conditions (temperature, relative humidity, light, etc.) according to the respective test system. A single evaluation of disease level is carried out 3 to 14 days after inoculation, depending on the pathosystem. Percent disease control relative to the untreated check leaf disks or segments is then calculated.
Field bean leaf discs are placed on water agar in multiwell plates (96-well format) and 10 μl of the formulated test compound diluted in acetone and a spreader pipetted onto the leaf disc. Two hours after application leaf discs are inoculated by spraying a spore suspension on the lower leaf surface. The leaf discs are incubated in a climate cabinet at 22° C. with 18 hour day and 70% relative humidity. The activity of a compound is assessed as percent disease control compared to untreated when an appropriate level of disease damage appears in untreated check leaf disks (12 days after application).
The following compounds at 100 ppm in the applied formulation give at least 80% disease control in this test when compared to untreated control leaf discs under the same conditions, which show extensive disease development.

[2] = test system: Puccinia recondita f. Sp. tritici; assay: Puccinia recondita f. sp. tritici / wheat / leaf disc preventative (brown rust); assay type: in vivo; conditions: foliar, 200 ppm in the applied formulation, compared to untreated control, read-out: disease control
Experimental: as §1, with “calculated. Wheat leaf segments cv. Kanzler were placed on agar in multiwell plates (24-well format) and sprayed with the formulated test compound diluted in water. The leaf disks were inoculated with a spore suspension of the fungus 1 day after application. The inoculated leaf segments were incubated at 19° C. and 75% relative humidity (rh) under a light regime of 12 hours light/12 hours darkness in a climate cabinet and the activity of a compound was assessed as percent disease control compared to untreated when an appropriate level of disease damage appears in untreated check leaf segments (7 to 9 days after application). The following compounds at 200 ppm in the applied formulation give at least 80% disease control in this test when compared to untreated control leaf disks under the same conditions, which show extensive disease development.” for “calculated.”

[3] = test system: Puccinia recondita f. Sp. tritici; assay: Puccinia recondita f. sp. tritici / wheat / leaf disc curative (brown rust); assay type: in vivo; conditions: foliar, 200 ppm in the applied formulation, compared to untreated control, read-out: disease control
Experimental: as §1
Wheat leaf segments cv. Kanzler are placed on agar in multiwell plates (24-well format). The leaf segments are then inoculated with a spore suspension of the fungus. Plates were stored in darkness at 19° C. and 75% relative humidity. The formulated test compound diluted in water was applied 1 day after inoculation. The leaf segments were incubated at 19° C. and 75% relative humidity under a light regime of 12 hours light/12 hours darkness in a climate cabinet and the activity of a compound was assessed as percent disease control compared to untreated when an appropriate level of disease damage appears in untreated check leaf segments (6 to 8 days after application).
(§2) The following compounds at 200 ppm in the applied formulation give at least 80% disease control in this test when compared to untreated control leaf disks under the same conditions, which show extensive disease development.

[4] = test system: Phakopsora pachyrhizi; assay: Phakopsora pachyrhizi / soybean / leaf disc preventative (Asian soybean rust); assay type: in vivo; conditions: foliar, 200 ppm in the applied formulation, compared to untreated control, read-out: disease control
Experimental: as §1
Soybean leaf disks are placed on water agar in multiwell plates (24-well format) and sprayed with the formulated test compound diluted in water. One day after application leaf discs are inoculated by spraying a spore suspension on the lower leaf surface. After an incubation period in a climate cabinet of 24-36 hours in darkness at 20° C. and 75% rh leaf disc are kept at 20° C. with 12 h light/day and 75% rh. The activity of a compound is assessed as percent disease control compared to untreated when an appropriate level of disease damage appears in untreated check leaf disks (12 to 14 days after application).
as §2

[5] = test system: Glomerella lacenarium (Colletotrichum lacenarium); assay: Glomerella lacenarium (Colletotrichum lacenarium) liquid culture / cucumber / preventative (anthracnose); assay type: cell-based; conditions: 20 ppm in the applied formulation, growth inhibition measured photometrically, compared to untreated control, read-out: disease control
Experimental: Mycelia fragments or conidia suspensions of a fungus prepared either freshly from liquid cultures of the fungus or from cryogenic storage, are directly mixed into nutrient broth. DMSO solutions of the test compound (max. 10 mg/ml) are diluted with 0.025% Tween20 by a factor of 50 and 10 μl of this solution is pipetted into a microtiter plate (96-well format). The nutrient broth containing the fungal spores/mycelia fragments is then added to give an end concentration of the tested compound. The test plates are incubated in the dark at 24° C. and 96% relative humidity. The inhibition of fungal growth is determined photometrically after 2 to 7 days, depending on the pathosystem, and percent antifungal activity relative to the untreated check is calculated.
Conidia of the fungus from cryogenic storage are directly mixed into nutrient broth (PDB—potato dextrose broth). After placing a (DMSO) solution of test compound into a microtiter plate (96-well format), the nutrient broth containing the fungal spores is added. The test plates are incubated at 24° C. and the inhibition of growth is measured photometrically 3 to 4 days after application.
The following compounds at 20 ppm in the applied formulation give at least 80% disease control in this test when compared to untreated control under the same conditions, which show extensive disease development.

SMILES	pest or weed control at 100 ppm [1] [%]	melting point [°C]	pest or weed control at 200 ppm [2] [%]	pest or weed control at 200 ppm [3] [%]	pest or weed control at 200 ppm [4] [%]	inhibition of growth at 20 ppm [5] [%]
CC(=O)c1ccc(-c2noc(C(F)(F)F)n2)cc1 [Compound 1.2, 1-[4-[5-(trifluoromethyl)-1,2,4-oxadiazol-3-yl]phenyl]ethanone]	≥ 80	105 to 115	–	–	–	–
Cc1ccnc(C(=O)c2ccc(-c3noc(C(F)(F)F)n3)cc2)c1 [Compound 1.27, (4-methyl-2-pyridyl)-[4-[5-(trifluoromethyl)-1,2,4-oxadiazol-3-yl]phenyl]methanone]	–	76 to 81	≥ 80	≥ 80	≥ 80	≥ 80
OC(c1ccc(OC(F)(F)F)cc1)c1ccc(-c2noc(C(F)(F)F)n2)cc1 (stereo not shown) [Compound 2.5, [4-(trifluoromethoxy)phenyl]-[4-[5-(trifluoromethyl)-1,2,4-oxadiazol-3-yl]phenyl]methanol]	≥ 80	90 to 93	–	–	–	≥ 80
O=C(c1ccc(-c2noc(C(F)(F)F)n2)cc1)C1CC1 [Compound 1.9, cyclopropyl-[4-[5-(trifluoromethyl)-1,2,4-oxadiazol-3-yl]phenyl]methanone]	≥ 80	58 to 62	–	–	–	≥ 80
Cc1cc(C(O)c2ccc(-c3noc(C(F)(F)F)n3)cc2)on1 (stereo not shown) [Compound 2.14, (3-methylisoxazol-5-yl)-[4-[5-(trifluoromethyl)-1,2,4-oxadiazol-3-yl]phenyl]methanol]	–	84 to 90	≥ 80	≥ 80	≥ 80	≥ 80
OC(c1ccc(-c2noc(C(F)(F)F)n2)cc1)C1CC1 (stereo not shown) [Compound 2.7, cyclopropyl-[4-[5-(trifluoromethyl)-1,2,4-oxadiazol-3-yl]phenyl]methanol]	≥ 80	69 to 73	≥ 80	–	–	≥ 80
Cc1cccc(C(=O)c2ccc(-c3noc(C(F)(F)F)n3)cc2)n1 [Compound 1.18, (6-methyl-2-pyridyl)-[4-[5-(trifluoromethyl)-1,2,4-oxadiazol-3-yl]phenyl]methanone]	–	–	≥ 80	≥ 80	≥ 80	≥ 80
Cc1cc(C(=O)c2ccc(-c3noc(C(F)(F)F)n3)cc2)on1 [Compound 1.13, (3-methylisoxazol-5-yl)-[4-[5-(trifluoromethyl)-1,2,4-oxadiazol-3-yl]phenyl]methanone]	–	–	≥ 80	≥ 80	≥ 80	≥ 80
CCc1cc(C(=O)c2ccc(-c3noc(C(F)(F)F)n3)cc2)on1 [Compound 1.14, (3-ethylisoxazol-5-yl)-[4-[5-(trifluoromethyl)-1,2,4-oxadiazol-3-yl]phenyl]methanone]	–	–	≥ 80	≥ 80	≥ 80	≥ 80
C=CCC(=O)c1ccc(-c2noc(C(F)(F)F)n2)cc1 [Compound 1.8, 1-[4-[5-(trifluoromethyl)-1,2,4-oxadiazol-3-yl]phenyl]but-3-en-1-one]	≥ 80	65 to 69	–	–	–	≥ 80
O=C(c1ccc(-c2noc(C(F)(F)F)n2)cc1)c1ccccn1 [Compound 1.16, 2-pyridyl-[4-[5-(trifluoromethyl)-1,2,4-oxadiazol-3-yl]phenyl]methanone]	–	66 to 70	≥ 80	≥ 80	≥ 80	≥ 80
O=C(c1ccc(-c2noc(C(F)(F)F)n2)cc1)c1nccs1 [Compound 1.24, thiazol-2-yl-[4-[5-(trifluoromethyl)-1,2,4-oxadiazol-3-yl]phenyl]methanone]	–	84 to 90	≥ 80	≥ 80	≥ 80	≥ 80
CCn1cc(C(=O)c2ccc(-c3noc(C(F)(F)F)n3)cc2)cn1 [Compound 1.17, (1-ethylpyrazol-4-yl)-[4-[5-(trifluoromethyl)-1,2,4-oxadiazol-3-yl]phenyl]methanone]	–	80 to 86	≥ 80	≥ 80	≥ 80	≥ 80
O=C(c1ccc(OC(F)(F)F)cc1)c1ccc(-c2noc(C(F)(F)F)n2)cc1 [Compound 1.6, [4-(trifluoromethoxy)phenyl]-[4-[5-(trifluoromethyl)-1,2,4-oxadiazol-3-yl]phenyl]methanone]	≥ 80	104 to 107	–	–	–	–
CCCCC(O)c1ccc(-c2noc(C(F)(F)F)n2)cc1 (stereo not shown) [Compound 2.3, 1-[4-[5-(trifluoromethyl)-1,2,4-oxadiazol-3-yl]phenyl]pentan-1-ol]	≥ 80	–	–	–	–	–
COc1ccc(C(=O)c2ccc(-c3noc(C(F)(F)F)n3)cc2)nc1 [Compound 1.20, (5-methoxy-2-pyridyl)-[4-[5-(trifluoromethyl)-1,2,4-oxadiazol-3-yl]phenyl]methanone]	–	65 to 73	≥ 80	≥ 80	≥ 80	≥ 80
CC(C)(C)C(=O)c1ccc(-c2noc(C(F)(F)F)n2)cc1 [Compound 1.4, 2,2-dimethyl-1-[4-[5-(trifluoromethyl)-1,2,4-oxadiazol-3-yl]phenyl]propan-1-one]	≥ 80	–	–	–	–	–
CC#CC(=O)c1ccc(-c2noc(C(F)(F)F)n2)cc1 [Compound 1.7, 1-[4-[5-(trifluoromethyl)-1,2,4-oxadiazol-3-yl]phenyl]but-2-yn-1-one]	≥ 80	84 to 87	≥ 80	–	–	≥ 80
C/C=C/CC(O)c1ccc(-c2noc(C(F)(F)F)n2)cc1 (stereo not shown) [Compound 2.9, 1-[4-[5-(trifluoromethyl)-1,2,4-oxadiazol-3-yl]phenyl]pent-3-en-1-ol]	≥ 80	–	–	–	–	≥ 80
